Data from BigSolDB 2.1.

Clc1cccnc1Cl
solubility (mole fraction)
Conditions | 278.15 K | 283.15 K | 288.15 K | 293.15 K | 298.15 K | 303.15 K | 308.15 K | 313.15 K
in 1,4-dioxane | – | – | 0.241 | 0.285 | 0.332 | 0.382 | 0.442 | 0.514
in acetonitrile | 0.061 | 0.0806 | 0.108 | 0.137 | 0.178 | 0.23 | 0.295 | 0.389
in cyclohexane | – | 0.0334 | 0.045 | 0.061 | 0.0796 | 0.106 | 0.145 | 0.187
in dichloromethane | 0.213 | 0.238 | 0.27 | 0.304 | 0.346 | 0.386 | 0.432 | 0.489
in ethanol | 0.0314 | 0.0418 | 0.0558 | 0.071 | 0.0902 | 0.115 | 0.145 | 0.188
in ethyl acetate | 0.166 | 0.194 | 0.223 | 0.259 | 0.302 | 0.349 | 0.398 | 0.46
in isobutanol | 0.0394 | 0.0507 | 0.0654 | 0.0836 | 0.108 | 0.14 | 0.18 | 0.232
in isopropanol | 0.032 | 0.0401 | 0.0532 | 0.0687 | 0.0895 | 0.117 | 0.154 | 0.2
in methanol | 0.0181 | 0.0259 | 0.0362 | 0.0505 | 0.0676 | 0.0943 | 0.129 | 0.178
in methyl acetate | 0.146 | 0.172 | 0.203 | 0.237 | 0.28 | 0.321 | 0.374 | 0.425
in n-butanol | 0.0489 | 0.0607 | 0.0798 | 0.0983 | 0.123 | 0.155 | 0.197 | 0.249
in n-butyl acetate | 0.185 | 0.213 | 0.246 | 0.282 | 0.324 | 0.372 | 0.424 | 0.487
in n-hexane | 0.0154 | 0.0216 | 0.029 | 0.0387 | 0.0516 | 0.0684 | 0.0906 | 0.123
in n-propanol | 0.0378 | 0.0479 | 0.0606 | 0.0804 | 0.1 | 0.129 | 0.164 | 0.211
